How the values were obtained:
[1] = tested on: cyclin D1; assay: Western blotting, cyclin D1; type: cell-based, human; details: MG-63 cells
Experimental: (§1) Changes in protein level by CuB were checked by Western blotting. […] After 2, 9, and 20 hours of exposure, cells were harvested and immediately lysed with RIPA buffer (Millipore—Upstate, Temecula, Calif.) supplemented with protease inhibitor cocktail (Roche, San Francisco, Calif.), 0.5 mM PMSF (Roche), and 50 mM NaF (Sigma). After 20 minutes of incubation on ice, protein concentrations were measured by Bradford assay with Bio Rad protein assay solution (Bio-Rad, Hercules, Calif.) and samples were adjusted to the same protein concentration. Samples were mixed with 2× Laemmli sample buffer (Bio-Rad) with 5% β-mercaptoethanol (Sigma) and incubated at 95° C. for 10 min to denature the protein. After brief incubation on ice, proteins were separated by SDS-PAGE, transferred to nitrocellulose membrane (Sigma), and blotted with antibodies from either Cell Signaling Technology (Danvers, Mass.) or Santa Cruz Biotechnology (Santa Cruz, Calif.). Target proteins were visualized by Supersignal West Dura Substrate (Thermo-Pierce, Rockford, Ill.). GAPDH protein was used as a loading control.

[2] = tested on: phospho-c-Jun and c-Fos; assay: Western blotting, phospho-c-Jun and c-Fos; type: cell-based, human; details: MG-63 and SAOS-2 cells
Experimental: as §1

[3] = tested on: SAOS-2 cells; assay: MTT assay, SAOS-2 (dose-response, pulse-exposure, combination); type: cell-based, human; details: pulse-exposed at ED50 for 2, 9, and 20 hours
Experimental: (§2) 7 human OS cell lines (U2OS, G292, MG-63, HT-161, HOS, SAOS-2, and SJSA) were used in the study. Each cell line except HT-161 was obtained from the American Type Culture Collection (ATCC, Rockville, Md.). HT-161 was obtained from Dr. Emil Bogenmann (13). All cell lines were tested and authenticated prior to use according to cell line verification test recommendations by ATCC. OS cell lines were maintained in DMEM medium (Mediatech Inc., Herndon, Va.) supplemented with 10% fetal bovine serum (FBS; Atlanta Biological, Lawrenceville, Ga.) in a humidified incubator at 37° C. supplied with 5% CO2. Only the cells in exponential growth phase were used in the study.
(§3) Cell growth and survival were measured by 3-(4,5-dimethylthiazol-2-yl)-2,5-diphenyltetrazolium bromide (MTT) assay. […] After 48 hours of incubation, 10 μl of 5 mg/ml MTT solution (Sigma-Aldrich, St. Louis, Mo.) was added to each well and incubated further for 2 hours. […] For pulse-exposure experiments, MG-63 and SAOS-2 cells were seeded in 96-well plates and exposed to CuB at their ED50. After 2, 9, and 20 hours of exposure, cells were washed twice with PBS and incubated further in CuB-free media. Cell growth was checked by MTT assay at 24, 48, and 72 hours.
(§4) Calcusyn 2.0 (Biosoft, Ferguson, Mo.) was used for CI analysis.

[4] = Organ weight in mice; type: in vivo; details: day 35
Text: (§5) At autopsy, tumors and internal organs including liver, spleen, kidneys were excised, weighed, and then fixed in 10% PBS-buffered formalin and maintained in 70% ethanol. For IHC, fixed tumors and organs were embedded in paraplast (Oxford Labware, St. Louis, Mo.), cut in 6 μm thick sections, and stained with hematoxylin and eosin (HE) for histopathological examination.

[5] = tested on: ERK; assay: Western blotting, ERK phosphorylation; type: cell-based, human; details: MG-63 and SAOS-2 cells
Experimental: as §1

[6] = tested on: S6K and 4EBP1; assay: Western blotting, downstream targets of mTOR; type: cell-based, human; details: MG-63 and SAOS-2 cells
Experimental: as §1

[7] = tested on: poly ADP-ribose polymerase (PARP); assay: Western blotting, PARP cleavage; type: cell-based, human; details: MG-63 and SAOS-2 cells
Experimental: as §1

[8] = tested on: MG-63 xenografts; assay: Immunohistochemistry of xenografts (HE, Ki-67, TUNEL); type: in vivo, mice; details: LD-CuB 0.5 mg/kg; day 35
Text: as §5
For Ki-67 proliferation assay, tumor sections were deparaffinized with xylene and rehydrated through graded ethanol. Endogenous peroxidase activity was blocked with 3% hydrogen peroxide in methanol. […] After incubation, tumor sections were stained with diaminobenzidine (DAB) and counterstained with hematoxylin. Terminal deoxynucleotidyl transferase dUTP nick end labeling (TUNEL) apoptosis assay was performed using ApopTaq Plus Peroxidase In Situ Apoptosis Kit (Millipore) according to the manufacturer's protocol. Percent positive cells in representative microscopic fields were counted using ImageJ (17).

[9] = tested on: clonogenic hematopoietic cells; assay: Colony-forming cell (CFC) assays of bone marrow; details: day 35, 2 × 10^4 cells/well
Experimental: Whole blood samples were obtained by submandibular bleeding and serum samples were harvested with serum separator tubes (BD Biosciences). Blood count and serum chemistry results were obtained by the Hemagen Analyst Benchtop Chemistry System (Hemagen Diagnostics, Inc. Columbia, Md.). Colony-forming cell (CFC) assays were performed as previously described (18).

[10] = molecular target: mTOR (Homo sapiens, UniProt P42345); assay: Western blotting, mTOR phosphorylation; type: cell-based; set-up: endogenous in cells; host or cells: MG-63 and SAOS-2 cells; details: MG-63 and SAOS-2 cells; at ED50, 2, 9, or 20 hours
Experimental: as §1

[11] = tested on: SAOS-2 cells; assay: Cell cycle analysis (PI, FACS), SAOS-2; type: cell-based, human
Experimental: (§6) Cells were harvested and fixed with 70% ethanol at regular time intervals. Fixed cells were stained with propidium iodide (PI) for flow cytometry analysis using BD FACScan (BD Biosciences, San Jose, Calif.). Distribution of cell cycle was analyzed by ModFit LT V2.0 software (Verity Software House, Topsham, Me.). […] After 24, 48, and 72 hours of exposure, cells were harvested and stained with PI and fluorescein isothiocyanate (FITC) using Annexin V-FITC apoptosis detection kit (BD Biosciences) according to the manufacturer's protocol. Cells were subjected to flow cytometry analysis within one hour of staining.

[12] = tested on: MG-63 cells; assay: MTT assay, MG-63 (dose-response, pulse-exposure, combination); type: cell-based, human; details: pulse-exposed at ED50 for 2, 9, and 20 hours
Experimental: as §2, §3, §4

[13] = tested on: cyclin A and cyclin-dependent kinase inhibitor 1 (p21^WAF1); assay: Western blotting, cyclin A and p21^WAF1; type: cell-based, human; details: MG-63 and SAOS-2 cells
Experimental: as §1

[14] = tested on: SAOS-2 cells; assay: Annexin V-FITC apoptosis assay, SAOS-2; type: cell-based, human; details: at ED50, 72 hours of exposure
Experimental: as §6

CC(=O)OC(C)(C)/C=C/C(=O)[C@](C)(O)[C@H]1[C@H](O)C[C@@]2(C)[C@@H]3CC=C4[C@H](C[C@H](O)C(=O)C4(C)C)[C@]3(C)C(=O)C[C@]12C [CuB, cucurbitacin B]
levels of cyclin D1 [1]: Decrease in the levels of cyclin D1 occurred in MG-63 | phospho-c-Jun level and c-Fos expression [2]: Decreased level of phospho-c-Jun and subsequent decrease in c-Fos expression | cell death after pulse-exposure [3]: longer exposure to CuB induced more cell death | Kidney organ weight ([4]; HD-CuB 1.0 mg/kg): 370 ± 1 mg | Liver organ weight ([4]; HD-CuB 1.0 mg/kg): 1260 ± 141 mg | Spleen organ weight ([4]; HD-CuB 1.0 mg/kg): 110 ± 1 mg | Kidney organ weight ([4]; LD-CuB 0.5 mg/kg): 360 ± 1 mg | Liver organ weight ([4]; LD-CuB 0.5 mg/kg): 1250 ± 60 mg | Spleen organ weight ([4]; LD-CuB 0.5 mg/kg): 117 ± 6 mg | ERK phosphorylation [5]: inhibited ERK phosphorylation without changing the total levels of ERK in both cells | downstream targets of mTOR (S6K, 4EBP1) [6]: Inhibition of downstream targets of mTOR such as S6K and 4EBP1 | PARP cleavage [7]: showed cleavage of the precursor molecules in both cells | HE-stained tumors [8]: decreased tumor area and smaller blood vessels | BFU-E, number of colonies ([9]; HD-CuB 1.0 mg/kg): 8.3 ± 1.6 | CFU-GEMM, number of colonies ([9]; HD-CuB 1.0 mg/kg): 3.8 ± 0.8 | CFU-GM, number of colonies ([9]; HD-CuB 1.0 mg/kg): 64.6 ± 4.6 | BFU-E, number of colonies ([9]; LD-CuB 0.5 mg/kg): 9.7 ± 1.4 | CFU-GEMM, number of colonies ([9]; LD-CuB 0.5 mg/kg): 4.2 ± 0.8 | CFU-GM, number of colonies ([9]; LD-CuB 0.5 mg/kg): 69.8 ± 3.0 | mTOR phosphorylation at S2448 and S2481 [10]: inhibition of mTOR phosphorylation at S2448 and S2481 without affecting the total level of mTOR | increase of G2/M phase ([11]; 20 hours of exposure): around 3 fold | G2/M phase ([11]; 20 hours of exposure at ED50 (control 15%)): 42% | cell death after pulse-exposure [12]: longer exposure to CuB induced more cell death | protein levels of cyclin A and p21^WAF1 [13]: increased the protein levels of cyclin A and cyclin-dependent kinase inhibitor 1 (p21^WAF1) in both cells | apoptotic cells [14]: 96%
